Data on 13 molecules can be found in patent US7064139B2, “Method for treating retroviral infections” (Uniroyal Chemical Company, Inc., priority 2001, dated 2006).

Values after ≈ are worked out from the molar mass of the structure shown.

The subject of the first assay is HIV-1 (IIIB). As to the kind of experiment: microbe, parasite or virus in culture. In kind it is cell-based. The following applies: CEM cells, syncytium formation, day four post infection. The gist of the method:
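Human T-lymphoblast CEM cells at roughly 300,000 cells per ml were infected with about 100 CCID50 of HIV-1 (IIIB). Then 100 μl of the infected suspension went into 200 μl microtiter wells holding 100 μl of 5-fold serial compound dilutions. Inhibition of syncytium formation was scored microscopically on day four post infection, and protection against virus-induced cytopathicity was recorded.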
On to `[O-][n+]1cccc(Cl)c1[S+]([O-])Cc1ccccc1` (centres unmarked) [Compound 136], for which the “EC50 (ug/ml) HIV-1” value is 1.50 µg/mL (≈ 5.6 µM).

For `Cc1cc[n+]([O-])c(S(=O)(=O)Cc2ccc(Cl)cc2)c1` [Compound 129], the “EC50 (ug/ml) HIV-1” value was greater than 14 µg/mL.

Regarding `CCc1ccc(CS(=O)(=O)c2cccc[n+]2[O-])cc1` [Compound 59], the “EC50 (ug/ml) HIV-1” value is 5.50 µg/mL (≈ 19.8 µM).

Turning to “2-(4-(2,2-dichlorocyclopropyl)phenyl)methylsulfonyl)-pyridine-N-oxide [Compound 45]”, the “EC50 (ug/ml) HIV-1” value came out at 1.75 µg/mL.

For `Cc1ccc(C)c(C(C)S(=O)(=O)c2cccc(Cl)[n+]2[O-])c1` (centres unmarked) [Compound 76], the “EC50 (ug/ml) HIV-1” value was found to be 0.90 µg/mL (≈ 2.76 µM).

As for `[O-][n+]1ccccc1[S+]([O-])Cc1cccc(C(F)(F)F)c1` (centres unmarked) [Compound 85], the “EC50 (ug/ml) HIV-1” value is 13.00 µg/mL (≈ 43.1 µM).

Turning to `Cc1ccc(C)c(C[S+]([O-])c2c(C)ccc[n+]2[O-])c1` (centres unmarked) [Compound 70], the “EC50 (ug/ml) HIV-1” value was found to be 12.00 µg/mL (≈ 43.6 µM).

In the case of `[O-][n+]1cccc(Cl)c1SCc1ccccc1` [Compound 132], the “EC50 (ug/ml) HIV-1” value was found to be 2.40 µg/mL (≈ 9.53 µM).

`Cc1ccc(C)c(C(C)S(=O)(=O)c2ccccn2)c1` (centres unmarked) [Compound 161]: the “EC50 (ug/ml) HIV-1” value was determined as 9.50 µg/mL (≈ 34.5 µM).

Consider `Cc1cccc(CSc2cccc[n+]2C)c1.[Cl-]` [Compound 142], for which the “EC50 (ug/ml) HIV-1” value was greater than 4 µg/mL.

For the molecule `Cc1cc([N+](=O)[O-])ccc1CS(=O)(=O)c1c(C)ccc[n+]1[O-]` [Compound 118], the “EC50 (ug/ml) HIV-1” value was greater than 4 µg/mL.

As to `Cc1cc(CS(=O)(=O)c2cccc[n+]2[O-])c(C)cc1CS(=O)(=O)c1cccc[n+]1[O-]` [Compound 25], the “EC50 (ug/ml) HIV-1” value worked out at 10.00 µg/mL (≈ 22.3 µM).

Take `COc1ccc(CS(=O)(=O)c2cccc[n+]2[O-])cc1OC` [Compound 46]: the “EC50 (ug/ml) HIV-1” value was “≧20 ug/ml”.

The assay is the same for the next values; noted with them: protection of CEM cells against virus-induced cytopathicity at the concentration in the previous column.
As for `Cc1cccc(CSc2cccc[n+]2C)c1.[Cl-]` [Compound 142], the “HIV-1 % Protection” value came to 0.0%.

`COc1ccc(CS(=O)(=O)c2cccc[n+]2[O-])cc1OC` [Compound 46]: the “HIV-1 % Protection” value came out at 37.5%.

The subject of another assay is HIV-2 (ROD). Put plainly: Inhibition of HIV-2 syncytium formation in CEM cells. In kind it is cell-based. The conditions noted are these: CEM cells, syncytium formation, day four post infection. An outline of the steps: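 Human T-lymphoblast CEM cells, suspended at roughly 300,000 cells per ml of culture medium, were infected with about 100 CCID50 of HIV-2 (ROD). Aliquots of 100 μl of infected cells were placed in 200 μl microtiter wells holding 100 μl of serial 5-fold compound dilutions, and syncytium formation was scored microscopically four days after infection.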
`[O-][n+]1cccc(Cl)c1[S+]([O-])Cc1ccccc1` (centres unmarked) [Compound 136]: the “EC50 (ug/ml) HIV-2” value was greater than 4.0 µg/mL.

Regarding `Cc1cc[n+]([O-])c(S(=O)(=O)Cc2ccc(Cl)cc2)c1` [Compound 129], the “EC50 (ug/ml) HIV-2” value amounted to 11.0 µg/mL (≈ 36.9 µM).

Take `CCc1ccc(CS(=O)(=O)c2cccc[n+]2[O-])cc1` [Compound 59]: the “EC50 (ug/ml) HIV-2” value amounted to 5.0 µg/mL (≈ 18 µM).

Consider “2-(4-(2,2-dichlorocyclopropyl)phenyl)methylsulfonyl)-pyridine-N-oxide [Compound 45]”, for which the “EC50 (ug/ml) HIV-2” value came to 1.5 µg/mL.

Regarding `Cc1ccc(C)c(C(C)S(=O)(=O)c2cccc(Cl)[n+]2[O-])c1` (centres unmarked) [Compound 76], the “EC50 (ug/ml) HIV-2” value came out at 2.4 µg/mL (≈ 7.37 µM).

Take `[O-][n+]1ccccc1[S+]([O-])Cc1cccc(C(F)(F)F)c1` (centres unmarked) [Compound 85]: the “EC50 (ug/ml) HIV-2” value amounted to 17.0 µg/mL (≈ 56.4 µM).

As to `Cc1ccc(C)c(C[S+]([O-])c2c(C)ccc[n+]2[O-])c1` (centres unmarked) [Compound 70], the “EC50 (ug/ml) HIV-2” value is “≧20 ug/ml”.

As to `[O-][n+]1cccc(Cl)c1SCc1ccccc1` [Compound 132], the “EC50 (ug/ml) HIV-2” value was greater than 20.00 µg/mL.

`Cc1ccc(C)c(C(C)S(=O)(=O)c2ccccn2)c1` (centres unmarked) [Compound 161]: the “EC50 (ug/ml) HIV-2” value was greater than 100 µg/mL.

On to `Cc1cccc(CSc2cccc[n+]2C)c1.[Cl-]` [Compound 142], for which the “EC50 (ug/ml) HIV-2” value is greater than 4 µg/mL.

As to `Cc1cc([N+](=O)[O-])ccc1CS(=O)(=O)c1c(C)ccc[n+]1[O-]` [Compound 118], the “EC50 (ug/ml) HIV-2” value was greater than 4.0 µg/mL.

Turning to `Cc1cc(CS(=O)(=O)c2cccc[n+]2[O-])c(C)cc1CS(=O)(=O)c1cccc[n+]1[O-]` [Compound 25], the “EC50 (ug/ml) HIV-2” value is “≧20 ug/ml”.

As for `COc1ccc(CS(=O)(=O)c2cccc[n+]2[O-])cc1OC` [Compound 46], the “EC50 (ug/ml) HIV-2” value turned out to be 15.0 µg/mL (≈ 48.5 µM).

The same assay, now with this note: protection of CEM cells against virus-induced cytopathicity at the concentration in the previous column.
For `[O-][n+]1cccc(Cl)c1[S+]([O-])Cc1ccccc1` (centres unmarked) [Compound 136], the “HIV-2 % Protection” value came out at 0.0%.

In the case of `Cc1ccc(C)c(C[S+]([O-])c2c(C)ccc[n+]2[O-])c1` (centres unmarked) [Compound 70], the “HIV-2 % Protection” value was 37.5%.

Regarding `[O-][n+]1cccc(Cl)c1SCc1ccccc1` [Compound 132], the “HIV-2 % Protection” value is recorded as 0.0%.

`Cc1ccc(C)c(C(C)S(=O)(=O)c2ccccn2)c1` (centres unmarked) [Compound 161]: the “HIV-2 % Protection” value amounted to 0.0%.

As for `Cc1cccc(CSc2cccc[n+]2C)c1.[Cl-]` [Compound 142], the “HIV-2 % Protection” value came to 0.0%.

As to `Cc1cc([N+](=O)[O-])ccc1CS(=O)(=O)c1c(C)ccc[n+]1[O-]` [Compound 118], the “HIV-2 % Protection” value is 0.0%.

Consider `Cc1cc(CS(=O)(=O)c2cccc[n+]2[O-])c(C)cc1CS(=O)(=O)c1cccc[n+]1[O-]` [Compound 25], for which the “HIV-2 % Protection” value is 37.5%.

Another assay relates to Davis strain CMV. Put plainly: Reduction of CMV-induced cytopathicity in HEL cells. In kind it is cell-based, human cytomegalovirus (HCMV). The conditions noted are these: HEL cells, estimate of percent protection at the concentration in the previous column. An outline of the steps: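 Confluent HEL cells were infected with 100 PFU/well CMV for 1–2 h, then washed and kept in MEM with 2% FCS and test compound. EC50 is the concentration cutting virus-induced cytopathicity by 50% versus untreated control at day 7. Where cytotoxicity interfered, percent protection at the stated concentration is given.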
Consider `Cc1cc[n+]([O-])c(S(=O)(=O)Cc2ccc(Cl)cc2)c1` [Compound 129], for which the “Antiviral % Inhibition Davis strain CMV” value is 20.0%.

In the case of `[O-][n+]1ccccc1[S+]([O-])Cc1cccc(C(F)(F)F)c1` (centres unmarked) [Compound 85], the “Antiviral % Inhibition Davis strain CMV” value is on record as 20.0%.

In the case of `[O-][n+]1cccc(Cl)c1SCc1ccccc1` [Compound 132], the “Antiviral % Inhibition Davis strain CMV” value is on record as 0.0%.

With `Cc1cc([N+](=O)[O-])ccc1CS(=O)(=O)c1c(C)ccc[n+]1[O-]` [Compound 118], the “Antiviral % Inhibition Davis strain CMV” value was 10.0%.

On to `COc1ccc(CS(=O)(=O)c2cccc[n+]2[O-])cc1OC` [Compound 46], for which the “Antiviral % Inhibition Davis strain CMV” value is on record as 40.0%.

Staying with this assay, now noted: HEL cells, virus-induced cytopathicity after seven days.
As for `[O-][n+]1cccc(Cl)c1[S+]([O-])Cc1ccccc1` (centres unmarked) [Compound 136], the “Antiviral EC50 (ug/ml) Davis strain CMV” value was 4.7 µg/mL.

For `Cc1cc[n+]([O-])c(S(=O)(=O)Cc2ccc(Cl)cc2)c1` [Compound 129], the “Antiviral EC50 (ug/ml) Davis strain CMV” value is greater than 5 µg/mL.

Consider `CCc1ccc(CS(=O)(=O)c2cccc[n+]2[O-])cc1` [Compound 59], for which the “Antiviral EC50 (ug/ml) Davis strain CMV” value was determined as 10.0 µg/mL.

For the molecule “2-(4-(2,2-dichlorocyclopropyl)phenyl)methylsulfonyl)-pyridine-N-oxide [Compound 45]”, the “Antiviral EC50 (ug/ml) Davis strain CMV” value came to 2.5 µg/mL.

As to `Cc1ccc(C)c(C(C)S(=O)(=O)c2cccc(Cl)[n+]2[O-])c1` (centres unmarked) [Compound 76], the “Antiviral EC50 (ug/ml) Davis strain CMV” value is 9.1 µg/mL.

As for `[O-][n+]1ccccc1[S+]([O-])Cc1cccc(C(F)(F)F)c1` (centres unmarked) [Compound 85], the “Antiviral EC50 (ug/ml) Davis strain CMV” value is greater than 50 µg/mL.

Regarding `Cc1ccc(C)c(C[S+]([O-])c2c(C)ccc[n+]2[O-])c1` (centres unmarked) [Compound 70], the “Antiviral EC50 (ug/ml) Davis strain CMV” value is 11.0 µg/mL.

With `[O-][n+]1cccc(Cl)c1SCc1ccccc1` [Compound 132], the “Antiviral EC50 (ug/ml) Davis strain CMV” value was greater than 50 µg/mL.

Regarding `Cc1ccc(C)c(C(C)S(=O)(=O)c2ccccn2)c1` (centres unmarked) [Compound 161], the “Antiviral EC50 (ug/ml) Davis strain CMV” value worked out at 38.0 µg/mL.

Consider `Cc1cccc(CSc2cccc[n+]2C)c1.[Cl-]` [Compound 142], for which the “Antiviral EC50 (ug/ml) Davis strain CMV” value turned out to be 3.4 µg/mL.

As to `Cc1cc([N+](=O)[O-])ccc1CS(=O)(=O)c1c(C)ccc[n+]1[O-]` [Compound 118], the “Antiviral EC50 (ug/ml) Davis strain CMV” value was greater than 5 µg/mL.

Turning to `Cc1cc(CS(=O)(=O)c2cccc[n+]2[O-])c(C)cc1CS(=O)(=O)c1cccc[n+]1[O-]` [Compound 25], the “Antiviral EC50 (ug/ml) Davis strain CMV” value amounted to 16.0 µg/mL.

With `COc1ccc(CS(=O)(=O)c2cccc[n+]2[O-])cc1OC` [Compound 46], the “Antiviral EC50 (ug/ml) Davis strain CMV” value was greater than 50 µg/mL.
